The source made the active and inactive calls. No cut-off for these calls is given here. Bounds are passed on as bounds.

The results in this text go back to ChEMBL document CHEMBL3046189, “Synthesis of potent inhibitors of histidinol dehydrogenase” (Bioorg Med Chem Lett, 1996).

Assay [1] has as its target T1, Histidinol dehydrogenase (Escherichia coli (strain K12), UniProt P06988).
T1 sequence (P06988 whole entry): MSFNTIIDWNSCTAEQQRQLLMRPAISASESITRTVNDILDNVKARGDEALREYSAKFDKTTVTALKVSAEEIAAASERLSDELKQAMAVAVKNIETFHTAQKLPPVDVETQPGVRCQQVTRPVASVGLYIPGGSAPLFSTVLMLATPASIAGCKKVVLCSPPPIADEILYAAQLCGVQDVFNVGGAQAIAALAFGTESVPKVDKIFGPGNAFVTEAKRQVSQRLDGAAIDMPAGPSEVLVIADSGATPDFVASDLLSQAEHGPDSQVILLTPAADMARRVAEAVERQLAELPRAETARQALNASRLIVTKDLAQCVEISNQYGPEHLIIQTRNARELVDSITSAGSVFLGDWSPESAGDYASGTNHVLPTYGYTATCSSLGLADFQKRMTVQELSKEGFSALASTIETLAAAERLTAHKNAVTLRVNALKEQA
Description: Inhibition of Escherichia coli histidinol dehydrogenase preincubated for 10 min before substrate histidinol addition by spectrophotometry.

In assay [2] the target is T1, Histidinol dehydrogenase. As to the kind of experiment: Binding affinity to Escherichia coli histidinol dehydrogenase.
The target of assay [3] is T2, Histidinol dehydrogenase, chloroplastic (Brassica oleracea var. capitata, UniProt P24226).
T2 sequence (P24226 whole entry): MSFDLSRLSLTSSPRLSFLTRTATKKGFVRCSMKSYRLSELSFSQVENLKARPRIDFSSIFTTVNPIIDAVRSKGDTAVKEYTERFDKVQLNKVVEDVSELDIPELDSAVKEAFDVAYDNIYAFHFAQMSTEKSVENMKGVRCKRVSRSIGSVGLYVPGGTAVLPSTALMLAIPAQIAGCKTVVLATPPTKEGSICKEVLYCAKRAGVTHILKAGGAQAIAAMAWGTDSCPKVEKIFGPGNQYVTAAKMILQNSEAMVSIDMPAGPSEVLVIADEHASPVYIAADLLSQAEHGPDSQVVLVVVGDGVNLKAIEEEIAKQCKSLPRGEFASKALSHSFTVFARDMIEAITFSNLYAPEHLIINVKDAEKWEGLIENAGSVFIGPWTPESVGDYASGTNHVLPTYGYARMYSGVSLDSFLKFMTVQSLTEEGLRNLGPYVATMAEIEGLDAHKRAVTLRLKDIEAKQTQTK
As to the kind of experiment: Inhibition of Brassica oleracea (cabbage) histidinol dehydrogenase pre-incubated for 10 min before substrate histidinol addition by spectrophotometry.

Assay [4] in a line: Ratio of IC50 for Escherichia coli histidinol dehydrogenase to IC50 for cabbage histidinol dehydrogenase.
Assay [5] relates to Oryza sativa. As to the kind of experiment: Inhibition of root growth in Oryza sativa (rice) seedlings grown in agar containing basal salts. The format is functional, organism-based.
Assay [6] deals with T3, Histidinol dehydrogenase, chloroplastic (Brassica oleracea var. capitata) (UniProt P24226).
T3 sequence (whole entry): T2 sequence (P24226 whole entry)
As to the kind of experiment: Ratio of histidinol IC50 to compound IC50 for Brassica oleracea (cabbage) histidinol dehydrogenase.

Assay [7] deals with Oryza sativa. As to the kind of experiment: Inhibition of root growth in Oryza sativa (rice) seedlings grown in agar containing basal salts in presence of histidine. Format: functional, organism-based.

What is called IC50 is the point on the concentration scale where inhibition reaches its midpoint. A high value points to lower potency. In turn, `N[C@@H](Cc1c[nH]cn1)C(=O)c1ccccc1` registered an IC50 in assay [1] of over 100 µM. Broadly, the Kd is the constant that tells how readily two partners part at equilibrium. Turning to `N[C@H](C=O)Cc1c[nH]cn1` [L-HISTIDINAL], in assay [2], the affinity, expressed as Kd, was 0.0014 µM. In assay [1], `N[C@@H](Cc1c[nH]cn1)C(=O)C(F)(F)C(F)(F)F` registered an IC50 of 20 µM. `N[C@@H](Cc1c[nH]cn1)C(=O)Cc1ccc(Br)c(Br)c1`: in assay [3], the IC50 was 0.05 µM.

The molecule `Nc1cc(CC(=O)[C@@H](N)Cc2c[nH]cn2)ccc1Br` displayed an IC50 in assay [3] of 8 µM.

As for `N[C@@H](Cc1c[nH]cn1)C(=O)Cc1cccc(Br)c1`, 0.1 µM corresponded to half-maximal inhibition in assay [3] (IC50). `N[C@@H](Cc1c[nH]cn1)C(=O)Cc1cccc(O)c1` yielded an IC50 in assay [3] of 0.3 µM. Still for that read-out and setting: to `N[C@@H](Cc1c[nH]cn1)C(=O)Cc1ccc(Cl)cc1` belongs 0.3 µM. One may read the Ki as the equilibrium dissociation constant of an inhibitor or competing ligand from its target. A lower Ki goes with a stronger hold on the target. `CC(=O)C(N)Cc1c[nH]cn1` (stereo unspecified): in assay [1], half-maximal inhibition (IC50) required 10 µM and the affinity, expressed as Ki, was 5 µM. Consider `Nc1ccc(CC(=O)[C@@H](N)Cc2c[nH]cn2)cc1`, for which the IC50 in assay [3] was found to be 0.5 µM. `N[C@@H](Cc1c[nH]cn1)C(=O)CCCc1ccccc1` returned an IC50 in assay [1] of 80 µM. In assay [3], `N[C@@H](Cc1c[nH]cn1)C(=O)Cc1ccccc1Br` yielded an IC50 of 1 µM.

Regarding `N[C@@H](Cc1c[nH]cn1)C(=O)Cc1ccccc1`, the Ratio IC50 in assay [4] stood at 10. Moreover, the results for the IC50 in assay [3] and in assay [1] were 0.1 µM and 1 µM, respectively. Also, the Ki in assay [3] is 0.0076 µM. On to `N[C@@H](Cc1c[nH]cn1)C(=O)Cc1ccc(Br)cc1`, for which the “growth inhibition (GI)” value in assay [5] is “Active”. In assay [3], this molecule showed an IC50 of 0.04 µM and a Ki of 0.0044 µM. Moreover, the Ratio IC50 in assay [6] was over 1000. In assay [1], `CCC(=O)C(N)Cc1c[nH]cn1` (stereo unspecified) returned an IC50 of over 100 µM. Turning to `N[C@@H](Cc1c[nH]cn1)C(=O)CCc1ccccc1`, in assay [1], it took 100 µM to reach half-maximal inhibition (IC50). On to `COc1ccc(CC(=O)[C@@H](N)Cc2c[nH]cn2)cc1`, for which the IC50 in assay [3] was 1 µM. Turning to `Nc1cccc(CC(=O)[C@@H](N)Cc2c[nH]cn2)c1`, in assay [5], the “growth inhibition (GI)” value was “Active”. In assay [3], this molecule registered an IC50 of 0.05 µM and a Ki of 0.0074 µM. Besides, the “growth inhibition (GI)” value in assay [7] was “inactive”. As to `N[C@@H](Cc1c[nH]cn1)C(=O)Cc1ccc(-c2ccccc2)cc1`, in assay [3], it took 0.04 µM to reach half-maximal inhibition (IC50) and the inhibition constant Ki was found to be 0.0029 µM. Besides, the Ratio IC50 in assay [6] is over 1000.
